The subject of experiment [1] is PBMCs. Put plainly: PBMC assay, IL-6 release (HTRF). It counts as cell-based. To be noted: PBMCs from healthy donors, overnight, IL-6 induction by HTRF, average of quadruplicate. The method, then: Whole peripheral blood was obtained from healthy donors. PBMCs were isolated from peripheral blood by density gradient centrifugation. […] The plasma layer containing PBMCs was poured into a new tube and washed twice. Isolated PBMCs were either used fresh or thawed from previously frozen. 1×10^5 PBMCs were cultured with titrating concentrations of compounds of Formula I overnight followed by assaying for cytokines by homogeneous time resolved fluorescence (HTRF).

Experiment [2] concerns the target T1, TLR7 (Homo sapiens, UniProt Q9NYK1).
T1 sequence (Q9NYK1 27-1049): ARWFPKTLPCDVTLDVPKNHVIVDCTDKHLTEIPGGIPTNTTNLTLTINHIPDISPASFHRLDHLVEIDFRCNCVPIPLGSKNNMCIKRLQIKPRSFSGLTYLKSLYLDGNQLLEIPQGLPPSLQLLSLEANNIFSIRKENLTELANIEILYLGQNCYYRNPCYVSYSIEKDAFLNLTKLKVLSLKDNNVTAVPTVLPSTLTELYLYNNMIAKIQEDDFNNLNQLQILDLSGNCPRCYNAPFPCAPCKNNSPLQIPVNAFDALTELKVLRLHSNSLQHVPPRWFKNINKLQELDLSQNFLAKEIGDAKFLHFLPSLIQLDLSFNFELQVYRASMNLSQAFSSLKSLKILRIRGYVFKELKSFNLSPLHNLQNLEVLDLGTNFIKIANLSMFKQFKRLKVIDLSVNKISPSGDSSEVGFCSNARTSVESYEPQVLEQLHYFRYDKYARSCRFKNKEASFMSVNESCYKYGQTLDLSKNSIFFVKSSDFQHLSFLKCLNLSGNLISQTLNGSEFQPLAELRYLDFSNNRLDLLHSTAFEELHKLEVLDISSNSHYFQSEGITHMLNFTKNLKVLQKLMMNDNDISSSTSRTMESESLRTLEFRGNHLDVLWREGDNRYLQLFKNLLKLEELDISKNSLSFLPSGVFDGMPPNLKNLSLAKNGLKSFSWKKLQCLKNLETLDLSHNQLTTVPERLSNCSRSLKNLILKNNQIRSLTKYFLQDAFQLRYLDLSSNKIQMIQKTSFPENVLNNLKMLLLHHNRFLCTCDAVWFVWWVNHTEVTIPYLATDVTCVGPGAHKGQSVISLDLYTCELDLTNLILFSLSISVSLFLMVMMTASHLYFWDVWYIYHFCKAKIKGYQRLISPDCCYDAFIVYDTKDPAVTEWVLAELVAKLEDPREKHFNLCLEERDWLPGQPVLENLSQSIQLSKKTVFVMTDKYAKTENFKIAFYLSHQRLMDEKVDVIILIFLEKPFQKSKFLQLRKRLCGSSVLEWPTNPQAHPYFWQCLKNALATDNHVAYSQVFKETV
Put plainly: Reporter gene assay, HEK-Blue TLR7 reporter cells (SEAP). In general terms: In a reporter assay the amount or activity of a reporter protein is the signal.
Experimental: (§1) 3×10^4 HEK-Blue™ TLR7 or 3×10^4 TLR8 reporter cells (InvivoGen, San Diego, CA) were treated with titrated (4-fold) amounts of test compound. […] Cells were incubated overnight at 37° C. and 5% CO2, then absorbance (620 and 655 nm) was read on a Synergy™ H1 microplate reader.

Experiment [3] addresses T2, TLR8 (Homo sapiens, UniProt Q9NR97).
T2 sequence (Q9NR97 27-1041): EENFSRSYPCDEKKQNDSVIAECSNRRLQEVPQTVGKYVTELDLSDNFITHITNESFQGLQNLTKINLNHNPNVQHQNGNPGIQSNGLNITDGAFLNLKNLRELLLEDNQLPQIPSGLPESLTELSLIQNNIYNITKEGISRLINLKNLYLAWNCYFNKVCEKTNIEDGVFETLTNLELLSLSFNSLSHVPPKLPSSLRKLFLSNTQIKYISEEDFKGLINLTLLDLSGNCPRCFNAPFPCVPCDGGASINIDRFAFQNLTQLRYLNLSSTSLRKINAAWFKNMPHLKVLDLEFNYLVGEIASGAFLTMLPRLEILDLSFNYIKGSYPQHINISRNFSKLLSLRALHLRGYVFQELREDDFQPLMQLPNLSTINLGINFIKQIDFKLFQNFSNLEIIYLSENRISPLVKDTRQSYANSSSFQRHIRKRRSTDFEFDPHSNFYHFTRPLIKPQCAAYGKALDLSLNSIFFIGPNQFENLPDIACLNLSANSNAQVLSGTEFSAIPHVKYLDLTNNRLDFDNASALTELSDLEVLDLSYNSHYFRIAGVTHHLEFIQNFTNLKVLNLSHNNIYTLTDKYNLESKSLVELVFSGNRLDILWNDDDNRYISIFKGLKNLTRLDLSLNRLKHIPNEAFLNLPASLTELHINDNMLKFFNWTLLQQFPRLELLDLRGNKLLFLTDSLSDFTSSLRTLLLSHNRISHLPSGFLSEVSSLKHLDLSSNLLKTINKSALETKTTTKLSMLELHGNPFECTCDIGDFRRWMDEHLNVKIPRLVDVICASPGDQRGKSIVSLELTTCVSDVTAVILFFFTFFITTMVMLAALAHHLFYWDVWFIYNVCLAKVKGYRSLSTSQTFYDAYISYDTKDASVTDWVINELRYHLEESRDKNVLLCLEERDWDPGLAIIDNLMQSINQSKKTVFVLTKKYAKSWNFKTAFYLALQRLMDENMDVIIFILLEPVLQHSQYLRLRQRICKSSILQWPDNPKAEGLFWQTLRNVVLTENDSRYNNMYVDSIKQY
Put plainly: Reporter gene assay, HEK-Blue TLR8 reporter cells (SEAP).
Experimental: as §1

Usually EC50 stands for the concentration that produces a half-maximal response.

`CCCCc1nc2c(N)nc3ccsc3c2n1Cc1ccc(CO)o1` [Compound 253, (5-((4-amino-2-butyl-1H-imidazo[4,5-d]thieno[3,2-b]pyridin-1-yl)methyl)furan-2-yl)methanol]: the EC50 in experiment [1], in experiment [2] and in experiment [3] was above 1000 nM each time.

As to `CCCCc1nc2c(N)nc3ccsc3c2n1CCCCCN(CC)CC` [Compound 175, 2-butyl-1-(5-(diethylamino)pentyl)-1H-imidazo[4,5-d]thieno[3,2-b]pyridin-4-amine], the concentration giving a half-maximal response (EC50) in experiment [1] is 99 nM; in experiment [2], 12 nM; in experiment [3], 380 nM.

In the case of `CCCCc1nc2c(N)nc3ccsc3c2n1Cc1ccccc1CN1CCNCC1` [Compound 218, 2-butyl-1-(2-(piperazin-1-ylmethyl)benzyl)-1H-imidazo[4,5-d]thieno[3,2-b]pyridin-4-amine], the EC50 in experiment [1], in experiment [2] and in experiment [3] was above 1000 nM in each case.

As for `CCCCc1nc2c(N)nc3ccsc3c2n1Cc1ccccc1CNCC(C)(C)O` [Compound 225, 1-((2-((4-amino-2-butyl-1H-imidazo[4,5-d]thieno[3,2-b]pyridin-1-yl)methyl)benzyl)amino)-2-methylpropan-2-ol], the EC50 in experiment [1], in experiment [2] and in experiment [3] was above 1000 nM throughout.

`CCNCc1nc2c(N)nc3ccsc3c2n1Cc1ccc(CN2CCNCC2)cc1` [Compound 268, 2-((ethylamino)methyl)-1-(4-(piperazin-1-ylmethyl)benzyl)-1H-imidazo[4,5-d]thieno [3,2-b]pyridin-4-amine]: the EC50 in experiment [1], in experiment [2] and in experiment [3] was above 1000 nM in each case.

Consider `CCCCc1nc2c(N)nc3ccsc3c2n1Cc1ccc(CNCCCCNC(=O)OCc2ccccc2)cc1` [Compound 260, benzyl (4-((4-((4-amino-2-butyl-1H-imidazo[4,5-d]thieno[3,2-b]pyridin-1-yl)methyl)benzyl)amino)butyl)carbamate], for which the values for the EC50 in experiment [1], in experiment [2] and in experiment [3] were 719 nM, 89 nM and above 1000 nM, respectively.

Take `CCCCc1nc2c(N)nc3ccsc3c2n1Cc1ccccc1CN1CCC(c2ccncc2)CC1` [Compound 219, 2-butyl-1-(2-((4-(pyridin-4-yl)piperidin-1-yl)methyl)benzyl)-1H-imidazo[4,5-d]thieno[3,2-b]pyridin-4-amine]: the EC50 in experiment [1], in experiment [2] and in experiment [3] was above 1000 nM in each case.

In the case of `CCCCc1nc2c(N)nc3ccsc3c2n1CCCCCNCC(C)(C)N1CCOCC1` [Compound 177, 2-butyl-1-(5-((2-methyl-2-morpholinopropyl)amino)pentyl)-1H-imidazo[4,5-d]thieno [3,2-b]pyridin-4-amine], the values for the EC50 in experiment [1], in experiment [2] and in experiment [3] were 270 nM, 24 nM and 570 nM, respectively.

On to `CCCCc1nc2c(N)nc3ccsc3c2n1Cc1ccc(CN2CCN(C(=O)OC(C)(C)C)CC2)cc1` [Compound 153, tert-butyl 4-(4-((4-amino-2-butyl-1H-imidazo[4,5-d]thieno[3,2-b]pyridin-1-yl)methyl)benzyl)piperazine-1-carboxylate], for which the EC50 in experiment [1] is 420 nM; in experiment [2], 85 nM; in experiment [3], above 1000 nM.

With `CCCCc1nc2c(N)nc3ccsc3c2n1CCCCCN=[N+]=[N-]` [Compound 173, 1-(5-azidopentyl)-2-butyl-1H-imidazo[4,5-d]thieno[3,2-b]pyridin-4-amine], the EC50 in experiment [1], in experiment [2] and in experiment [3] was above 1000 nM throughout.

Regarding `CCCCc1nc2c(N)nc3ccsc3c2n1Cc1cccc(CNCC(C)(C)O)c1` [Compound 205, 1-((3-((4-amino-2-butyl-1H-imidazo[4,5-d]thieno[3,2-b]pyridin-1-yl)methyl)benzyl)amino)-2-methylpropan-2-ol], the values for the EC50 in experiment [1], in experiment [2] and in experiment [3] were 160 nM, 110 nM and 190 nM, respectively.

Values taken from patent publication US20250179088A9 (ZYMEWORKS BC INC., priority 2020, published 2025).
